Results as given in patent US11123033B2, “Molecular imaging method for evaluating liver regeneration capacity after ALPPS operation” (Harbin Medical University, priority 2019, dated 2021).

Tested on: rabbit VX2 liver cancer model
Assay: 18F-FCH PET/CT imaging of residual liver after first-stage ALPPS
Format: in vivo
Settings: ALPPS group
From the text: using incision and fragmentation method for liver cancer tissues; first inoculating a VX2 tumor strain into the muscle outside the rabbit hind leg after passage, wherein the tumor grows to a diameter of 2.0-3.0 cm after 3 weeks; removing the tumor in the muscle of the rabbit hind, eliminating the necrotic tissue, selecting fish-like tissue at the edge of the tumor, and using ophthalmic scissors to cut the tumor tissue into tissue blocks of 1 mm3, and washing repeatedly with saline and putting in a sterile Petri dish for use; putting an experimental rabbit into general anesthesia (method of anesthesia: intramuscular injection of Shutai 1 ml) and fixing it on an animal operating table in supine position; performing skin preparation, disinfection, and spreading sterile surgical scarves on a surgical region of a rabbit abdomen; injecting lidocaine into linea alba 1 cm below xiphoid process for local anesthesia, and making a midline incision of 4 to 5 cm in an upper abdomen and cutting abdominal wall layer by layer to expose a left lateral lobe of a liver; cutting a thicker liver lobe to form a hole passage of about 3 mm×3 mm, and implanting 3-5 tumors into it, then filling liver incision with gelatin sponge particles and pressing to stop bleeding, followed by suturing the incision and closing the abdomen.
two weeks after implanting the rabbit liver with the VX2 tumor strain, performing the first stage of ALPPS (i.e. associating liverpartition and portal vein ligation for staged hepatectomy) on tumor-bearing rabbits;
dividing the tumor-bearing rabbits randomly into an ALPPS group (the left branch of the portal vein of the liver is ligated, and the liver parenchyma is dissected along the ischemic line between the left middle lobe of the liver and the right lobe of the liver) and a Sham group (i.e., a sham operation group, no portal vein ligation and liver dissection); fasting rabbits in the ALPPS group for 12 hours before surgery, and fixing on the table in the supine position after general anesthesia, and performing skin preparation in the surgical region; injecting lidocaine into the left under the xiphoid process, opening the abdomen after anesthesia around the incision with an incision length of about 5-7 cm, exposing and separating the left branch of the portal vein and ligating with 4-0 surgical sutures, then after an ischemic line between the left and right liver is formed, using the surgical scissors to cut off the liver parenchyma along the ischemic line; filling the partition with gel sponge particles for hemostasis, after no obvious bleeding, closing the abdominal wall incision layer by layer, closing the abdominal cavity, and disinfecting the incision with iodophor. […]

## C[N+](C)(C[18F])CCO [18 F-FCH, [18 F] fluoromethylcholine]
After 14 days
  18 F-FCH intake in the residual liver: decreases slightly
First 3 days after surgery
  18 F-FCH uptake in the residual liver tissue: increases rapidly
From the 1st postoperative day, PET/CT 1 h after 37 MBq/kg i.v.
  18 F-FCH uptake in the residual liver tissue: significant high uptake
Residual liver, days after surgery
  time at which 18 F-FCH uptake reaches a peak: around 7 days
